Laboratory results: a melting point compilation (Tetko et al.; mined from patent text by program, amines drawn as free bases though some values may be those of a salt)

Compound	melting point [°C]
CC(C)(C)OC(=O)c1cc2cc(Cl)ccc2[nH]1	140 to 142
CCCN1CCC=C(c2csc(NC(C)=O)n2)C1	109 to 112
CN1C(=O)C[C@@H](c2ccccc2)[C@H]1CO	93 to 95
CC(C)NC(=O)CC(O)(Cn1cncn1)c1ccc(Cl)cc1Cl (stereo unspecified)	105 to 107
CCOC(=O)Cc1sc(Sc2ccc(OC)nn2)nc1C	47 to 49
O=C(NO)[C@H](CNS(=O)(=O)c1ccc(OCc2c(C(F)(F)F)nn3ccccc23)cc1)N1CCN(Cc2ccccc2)CC1	138
COc1c(C)c(N2CCN(c3ccc(C)cc3)CC2)c(C)c2c1OC(C)C2 (stereo unspecified)	82 to 84
CCOC(=O)c1cc(C)c(C(=O)OCC)n1C	48 to 48.5
COc1ccc(C2=NN(C3CCN(C(C)=O)CC3)C(=O)C3CC=CCC23)cc1Cl (stereo unspecified)	206 to 208
COC(=O)N1CC[C@@H]2[C@H]1CCC[C@@]2(O)C#Cc1cccc(C)c1	110 to 112
CCn1ncc2c(Cl)c(C=O)cnc21	89 to 90
O=S1(=O)CC2C(C1)N(CCO)CCN2CCO (stereo unspecified)	145 to 147
COC1(c2nc3ccccc3s2)C=CC(=O)C=C1	123
O=C1CCC2=C(CCc3cc(Cl)c(Cl)cc32)N1	260 to 261
O=C1CNC(=O)N1CCNCc1ccc(CN2CCCCC2)o1	133 to 136
COc1nc(N)nc2oc(C)cc12	173 to 175
COC(=O)c1cc(C(F)(F)F)[nH]c1-c1ccc(Cl)cc1	120 to 122
CNCC1CN(c2c(F)cc3c(=O)c(C(=O)O)cn(C4CC4)c3c2Cl)CC1C (stereo unspecified)	253 to 255
COC(=O)CCCCCS(=O)c1ccc(-c2ccc(Cl)cc2)cc1 (stereo unspecified)	64 to 65
Cc1cc2c(cc1-c1ccc(O)c(C=O)c1)C(C)(C)CCC2(C)C	138 to 139
Cc1ccc(-n2cccc2-c2ccc(S(N)(=O)=O)cc2)cc1	131 to 134

Compound	melting point [°C]
CCCCCc1ncc(C(=O)OCC)c(O)n1	127 to 129
Clc1ccc2c(C3CCNCC3)c[nH]c2c1Cl	254 to 257
COCc1cccc(COC)c1C#N	80 to 81
CC(C)(C)c1cc(Cl)cc2c1OC(=O)C2O (stereo unspecified)	150 to 154
CCN1C(=O)N(c2ccc(C#N)c(C(F)(F)F)c2)C(=O)C1(CF)CF	129 to 130
COC(OC)C1CCC2C3CCC4CC(O)CCC4(C)C3C(=O)CC12C (stereo unspecified)	136 to 142
CCCCc1nc2c(N)nc3cccnc3c2n1CCNC(=O)CC(C)CCC=C(C)C (stereo unspecified)	163 to 164
CN(Cc1sc2c(=O)c(C(=O)NCc3ccc(Cl)cc3)cn(C)c2c1CO)CC(O)c1ccc(C#N)s1 (stereo unspecified)	188 to 190
CCNC(=O)OCCCCCCCCC1Cc2c(c(OC)c(OC)c(OC)c2OC)C1	85 to 86
C/C(=C\c1ccc(C(=O)O)cc1)c1ccc2c(c1)SCCS2	236 to 237
N#Cc1nn(-c2c(Cl)cc(C(F)(F)F)cc2Cl)c(N)c1-c1ccccc1Cl	192 to 193
C[C@H](CC(F)(F)F)[C@@H](CO)NS(=O)(=O)c1ccc(Cl)s1	132 to 133
CCOc1nn(-c2ccc(C(F)(F)F)cn2)cc1CCCOc1cccc(OC)c1CCC(=O)O	110 to 111
Clc1ccc(NC2=NCCN2)c(Cl)c1	138 to 139
Cc1ccccc1C1(CNC(=O)Nc2c(C(C)C)cccc2C(C)C)CCCC1	147 to 150
COc1ccc(-c2csc(Nc3ccc(C(F)(F)F)cn3)n2)cc1OC	244 to 247
CCN(CC)C(=O)c1cccc(C=O)c1	115 to 119
Cc1ccc(Nc2cc(C(=O)O)c(Nc3ccc(C)cc3)cc2C(=O)O)cc1	310
CC(C)(C)NCCCS(=O)(=O)O	> 280
OCc1cc(F)cc(Br)c1	41 to 43
COc1ccc2c(c1)Sc1cc(OC)ccc1N2CCC#N	111 to 113

Compound	melting point [°C]
O=S(=O)(NCCCCOc1ccc(-n2ccnc2)cc1)c1ccc(Br)cc1	134 to 136
CCCCSc1nsnc1O	72 to 72.5
CCCCCCCCCCN1CCC2(CC1)CSC1=C(O2)c2ccccc2C(=O)C1=O	110 to 111
CC(C)(C)OC(=O)C(C)(C)Oc1ccc2c(c1)Nc1ccccc1S2	138 to 140
COCC(=O)OC1(C(=O)CO)CCC2C3CCC4=CC(=O)CCC4(C)C3C(O)CC21C (stereo unspecified)	185
C=CC(O)c1cc(OC)c2oc(-c3ccc(O)c(OC)c3)c(C)c2c1 (stereo unspecified)	164 to 167
O=C(/C=C/c1ccc2ccccc2c1)Nc1cc(Cl)ccc1NS(=O)(=O)c1ccccc1	220 to 223
CCCOC(=O)Oc1ccc(-c2ccc(C#N)cc2)cc1	70.2 to 70.9
CN(C)/C=N/c1nc(=O)n(C(=O)NCc2ccccc2)cc1F	147 to 150
CN(CCCNC(=O)c1ccccc1)CCCc1c[nH]c2ccccc12	73 to 74
COc1cc(OC)cc(C(=CC#N)c2ccc3ncccc3c2)c1	142 to 144
CCC(Oc1c(C)c(F)cc(F)c1F)C1=NCCN1 (stereo unspecified)	99 to 101
IC(I)=C(I)Cn1nnc(-c2ccccc2)n1	188
CC(Oc1cccc(Oc2ccc(C(F)(F)F)cc2)c1)C(=O)OCCS(=O)Cc1ccccc1 (stereo unspecified)	110 to 112
NC(=O)c1cncnc1	175 to 178
CC(C)(CO)NS(=O)(=O)c1cccc(Br)c1	138
Cc1n[nH]c(C)c1Oc1cc(Cl)cc(C#N)c1	136 to 140
CCCCCCNc1nc(Cl)nc2c(SC)ncnc12	80 to 82
COC(=O)c1cccn1Cc1ccccc1N	95 to 97
CCOc1ccc(-c2nc(C=O)cs2)cc1OCC	84 to 87
Cc1cc([C@H]2[C@H](C(=O)Nc3ccc(F)c(F)c3)C2(C)C)ccc1S(N)(=O)=O (relative stereo)	195 to 198

Further lines, results first:

melting point [°C]	Compound
170 to 171	COc1cccc2c1C(=O)c1c(OC)cc(C(=O)N(C)OCc3ccccc3)cc1C2=O
192 to 194	CC(C)n1c(C=O)c(-c2ccc(F)cc2)c(-c2ccccc2)c1C(=O)NCCc1cccnc1
142	CCn1cc(-c2ccccc2)c2ncccc2c1=O
160 to 163	O=C1c2cccc3c2N(C(=O)C2CCCN12)C(c1ccccc1)O3 (stereo unspecified)
212	COc1cc2c(cc1OC)CN(CCc1ccc(NC(=O)c3cccc4c(=O)c5cccc(F)c5[nH]c34)cc1)CC2
220 to 222	O=C(NC(=O)c1c(Cl)cccc1Cl)Nc1ccc(Cl)cn1
162 to 163	COCc1ccc(N2CCN(Cc3c[nH]c4ncccc34)CC2)cc1
263	Cn1c(=O)c(C#N)c(N2CCN(C(=O)c3ccco3)CC2)c2cc(F)ccc21
128 to 130	COCCOc1ccc(CCCOc2cc(CCC(=O)O)n(C)n2)c(OCc2ccc(Cl)cc2Cl)c1
80 to 81	COc1ccc(CSCCNC(=O)c2c(Cl)cccc2Cl)cc1
58	CCCCOC(=O)S(=O)(=O)Nc1sc(CC(C)C)cc1-c1ccc(Cn2c(-c3ccccc3)nc(OC)c2C=O)c(Cl)c1
174 to 175	O=C(Nc1ccc(Oc2ccccc2)cc1)N1CCN(c2ccnc3c(Cl)cccc23)CC1
181 to 183	CCN1C(=O)C(C)(C)CCc2c1ccc(Nc1ncc(Cl)c(Nc3ccc(N4CCOCC4)cc3OC)n1)c2OC
254 to 256	CON=Cc1nc2c(N)nc3cc(-c4cccc(CS(N)(=O)=O)c4)ccc3c2s1
279 to 284	Nc1cccc(-c2cc3[nH]c4ccc(O)cc4c3c3c2C(=O)NC3=O)c1
> 250	O=C1Cn2nc(-c3ccc(F)cc3)c(-c3ccncc3)c2N1
200	CN1C(=O)c2c(Oc3ccccc3O)cc3[nH]c4cc(O)ccc4c3c2C1=O
110 to 112	COc1ccc(C(=O)NCCN2CCC(Oc3ccc(Cl)c(Cl)c3)CC2)cc1
163 to 167	O=C(Nc1cc(Cl)c(N2CCCC2)c(Cl)c1)c1ccc(F)c(OCc2cccnc2)c1

melting point [°C]	Compound
161 to 163	CP1(=O)c2ccccc2CN1c1cccc(C(F)(F)F)c1 (stereo unspecified)
162 to 168	Cc1cc(C(=O)N2Cc3ccc(C(=O)N(C)C[C@@H]4OC(=O)O[C@H]4[C@H](O)[C@H]4COC(=O)O4)n3Cc3ccccc32)ccc1C1=CCCCC1
143 to 146	COCCC1(C(=O)N[C@@H](Cc2ccc(N3C(=O)c4ccc(C#N)cc4C3=O)cc2)C(=O)O)CCCC1
106 to 112	FC(F)(F)c1cccc(-c2[nH]c(C3CCNCC3)cc2-c2ccncc2)c1
107 to 108	CCOC(=O)c1c(CN(CC)CC)nc2ccc(Cl)cc2c1-c1ccccc1
168 to 170	O=C1CCC(N2Cc3c(OCc4ccc5occc5c4)cccc3C2=O)C(=O)N1 (stereo unspecified)
152	COc1cc2c(cc1OC)CN(CCc1cccc(NC(=O)c3cccc4c(=O)c5cccc(OC)c5[nH]c34)c1)CC2
101 to 105	CCCCC1(N(C)C)CCC(c2[nH]c3ccc(F)cc3c2C)(c2[nH]c3ccccc3c2C(COC(N)=O)c2ccccc2)CC1 (stereo unspecified)
121 to 124	COc1ccc(CSc2nnc(-c3ccc4c(c3)CCO4)o2)cc1
178 to 180	Cc1c[nH]c(=O)n(C(=O)c2ccccc2)c1=O
203 to 204	CCCOc1ccc(S(=O)(=O)N2CCC(C(=O)OCC)CC2)cc1-c1nc2cc(Cl)c([N+](=O)[O-])cc2c(=O)[nH]1
68 to 69	C[C@H](O)CNc1cc(OCc2ccccc2)ccc1C=O
237 to 239	CC(C)N1CC(C(S)Oc2cccc3cnccc23)OC1=O (stereo unspecified)
177 to 179	Cc1cc(Br)ccc1NC(=O)c1cccc(S(=O)(=O)N2CCCCCC2)c1
239 to 240	Cn1ncc(/C=C/C(=O)Nc2ccc(CN3C(=O)COC3=O)cc2)c1-c1ccc(F)cc1
103 to 104	CN1C(=O)C(CCCN2CCN(c3ccc(F)cc3)CC2)Sc2ccccc21 (stereo unspecified)
133 to 135	CNC(=O)C(Cc1ccc(OC)cc1)NC(=O)C(CC(C)C)C(S)CC(=O)OCc1ccccc1 (stereo unspecified)
230 to 233	O=C(O)Cc1c(C(=O)c2ccc(-c3nccs3)cc2)[nH]c2cc(Cl)ccc12
156 to 157	O=C(CN1CC=CCC1)NC(=O)N1CCN2C(=O)OC(c3ccccc3)(c3ccccc3)C2C1 (stereo unspecified)
